Experimental data as given in article PMC12164026, “Plant-derived nodule-specific cysteine-rich peptides as potent antifungal agents against Cryptococcus neoformans: mechanisms of action, chimeric peptide enhancement, and immunomodulatory effects” (Current Research in Microbial Sciences, 2025).
In brackets after ≈: the same amount, converted by molar mass. Where two headings read alike, the source gives them in different places. Peptide text beside a SMILES is read from it.

Key:
[1] = tested on: Cryptococcus neoformans IFM 5844; experiment: microbe, parasite or virus in culture; assay type: cell-based; conditions: IFM 5844, 48 h; read-out: MIC
Method: (§1) The susceptibility of Cryptococcus neoformans IFM 5844 to 20 peptides (Supplementary Table 1) was tested in a widely used synthetic medium to cultivate yeasts (YNB) and in a serum-free medium what is able to support the proliferation of macrophage cells (X-VIVO).
YNB medium: five-fold diluted Difco Yeast Nitrogen Base w/o Amino Acids medium (Becton, Dickinson and Company, Sparks, MD, USA) supplemented with 1 % dextrose
(§2) The minimal inhibitory concentration (MIC) of each peptide was determined by using micro-dilution assay. The C. neoformans suspensions were adjusted to 5 × 10^4 cells/mL concentration in either YNB or X-VIVO medium. A 96-well microtiter plate was prepared by adding 95 µL suspension per well followed by 5 µL of serially two-fold diluted peptide solutions achieving a final volume of 100 µl. The concentration of the peptides ranged from 25 to 0.39 µM. For control samples, 5 µL pure medium was added to the yeast cell suspension instead of peptides. Plates were incubated at 37 °C for 48 h in X-VIVO medium and 30 °C for 72 h in YNB medium. After incubation, optical density was measured at 620 nm using a SPECTROstar Nano plate reader (BMG LabTech, Offenburg, Germany). […] The experiments were carried out in three independent biological replicates.

[2] = tested on: Cryptococcus neoformans IFM 5844; assay type: cell-based; conditions: IFM 5844, 48 h
Method: as §1
X-VIVO medium: half-diluted X-VIVO™ 15 cell culture medium (Lonza, Verviers, Belgium).
as §2

[3] = tested on: Cryptococcus neoformans IFM 5844; experiment: Minimal fungicidal concentration (MFC) determination, spotting on YPD; assay type: cell-based; conditions: cultures from MIC assays diluted and spotted onto solid YPD, 30 °C, 48 h
Method: Minimal fungicidal concentration (MFC) determination. To assess fungicidal activity, both control and peptide-treated cultures from the MIC assays were diluted 10-fold and 100-fold in sterile distilled water. Five µL from each dilution was then spotted onto solid YPD medium (1 % pepton, 1 % dextrose, 0.5 % yeast extract, 2 % agar). The plates were incubated at 30 °C for 48 h and fungal growth was evaluated. MFC was defined as the lowest peptide concentration at which no visible fungal growth was detected, indicating complete fungicidal activity.

[4] = tested on: C. neoformans IFM 5844 cells; experiment: Short-term sub-MIC killing, CFU counts; assay type: cell-based, Cryptococcus neoformans; conditions: for proportion of viable cells (CFU relative to control): 0.19 µM (half-MIC), YNB, 2 × 10^6 cells/mL; for reduction in colony-forming units: 30 min
Method: To assess the time-dependent fungicidal activity of X1-NCR247C, C. neoformans cells cultivated for 16 h at 30 °C were collected by centrifugation and washed twice with sterile distilled water. […] Following treatment, cells were pelleted by centrifugation washed with distilled water and serially diluted 10-fold and 100-fold. Fifty microliters of each dilution were plated onto solid YPD medium in triplicate.
After treatment, the cells were pelleted by centrifugation, washed with distilled water and serially diluted 10-fold and 100-fold. Fifty microliters of each dilution were spread onto solid YPD medium in triplicate. For both experimental setups colony forming unit (CFU) counts were determined after 48-hours incubation at 30 °C. The CFU values of peptide-treated samples were compared to untreated control samples, providing insights into the extent of fungal viability reduction. Three independent biological replicates were performed.

[5] = tested on: C. neoformans IFM 5844 intact cells; experiment: Susceptibility of intact cells to peptide, CFU counts; assay type: cell-based, Cryptococcus neoformans; conditions: 30 min, YNB + 0.8 M sorbitol
Method: (§3) The C. neoformans IFM 5844 strain was grown in YPD nutrient solution at 30 °C for 12 h by vigorous shaking until the exponential phase was reached (about 5 × 10^7 cells/mL).
To assess peptide susceptibility, 2 × 10^6 protoplasts and the same number of intact cells were treated separately with X1-NCR247C peptide at 0.78 or 0.39 µM in YNB supplemented with 0.8 M sorbitol for 30 min at 30 °C. […] Fifty microliters from each dilution were mixed into 2 mL of top-agar (0.8 M sorbitol with 1 % agar) and spread onto the surface of YPD solid medium supplemented with 0.8 M sorbitol. Plates were incubated for 3 days at 30 °C, after which colony forming units were counted to determine the survival rate of peptide-treated cells and protoplasts.

[6] = tested on: C. neoformans IFM 5844 protoplasts; experiment: Susceptibility of protoplasts to peptide, CFU counts; assay type: cell-based, Cryptococcus neoformans; conditions: 30 min, YNB + 0.8 M sorbitol
Method: as §3
For protoplast preparation cells were harvested by centrifugation and re-suspended in 20 mL of pre-treatment buffer (10 mM Tris–HCl, pH 9; 5 mM EDTA-Na2) supplemented with 0.1 % 2-mercaptoethanol. After incubation at room temperature for 20 min, the samples were centrifuged and the cell pellet was washed with 0.8 M sorbitol solution. The pellet was then re-suspended in 20 mL of protoplasting solution (prepared by dissolving 1 g lyophilised Helix pomatia digestive enzyme in 100 mL sorbitol) and the suspension was incubated for 60 min at room temperature. Protoplast formation was monitored every 30 min under bright field microscope. Once formed, protoplasts were collected by centrifugation, washed twice with 0.8 M sorbitol, and their concentration was determined in a Bürker chamber.
To assess peptide susceptibility, 2 × 10^6 protoplasts and the same number of intact cells were treated separately with X1-NCR247C peptide at 0.78 or 0.39 µM in YNB supplemented with 0.8 M sorbitol for 30 min at 30 °C. […] Plates were incubated for 3 days at 30 °C, after which colony forming units were counted to determine the survival rate of peptide-treated cells and protoplasts.

C. neoformans cells = experiment: Effect of X1-NCR247C and calcofluor white on CFU; assay type: cell-based, Cryptococcus neoformans
Method: To assess the effect of X1-NCR247C peptide and calcofluor white, C. neoformans cells were subjected to different treatments. […] For staining, cells were treated with calcofluor white at 2.5 µg/mL for the same duration. As a control, cells were incubated only with calcofluor white for 20 min.
For combined treatment, cells were first exposed to calcofluor white (2.5 µg/mL) for 5 min, followed by the addition of X1-NCR247C (0.39 µM), and the incubation continued for 15 additional minutes. Following treatment, cells were washed once with sterile distilled water to remove residual peptide and dye. Serial 10-, 100-, 1000-, and 10,000-fold dilutions were prepared, and 50 µL from each dilution was plated onto solid YPD medium in triplicate. After 48 h of incubation at 30 °C, colony-forming units were counted to determine cell viability under each condition.

CSCC[C@H](NC(=O)[C@H](CCCCN)NC(=O)[C@H](Cc1ccccc1)NC(=O)[C@H](CC(N)=O)NC(=O)[C@H](CC(C)C)NC(=O)[C@@H]1CCCN1C(=O)[C@@H](N)CCCNC(=N)N)C(=O)N[C@@H](CC(C)C)C(=O)N[C@@H](CCCNC(=N)N)C(=O)N[C@@H](Cc1ccccc1)C(=O)N[C@@H](Cc1c[nH]c2ccccc12)C(=O)NCC(=O)N[C@@H](CCC(N)=O)C(=O)N[C@@H](CCC(N)=O)C(=O)N[C@@H](CCC(N)=O)C(=O)N[C@@H](CS)C(=O)N[C@@H](CCCNC(=N)N)C(=O)N[C@@H](CCCNC(=N)N)C(=O)N1CCC[C@H]1C(=O)N[C@@H](CC(C)C)C(=O)N[C@@H](Cc1ccc(O)cc1)C(=O)N[C@@H](CS)C(=O)N[C@@H](CCCNC(=N)N)C(=O)N[C@@H](CCCNC(=N)N)C(=O)N[C@@H](CCCNC(=N)N)C(N)=O [X1-NCR247C] (H-RPLNFKMLRFWGQQQCRRPLYCRRR-NH2; N-terminus assumed)
MIC [1]: 1.56 µM (≈ 5.16 µg/mL)
MIC [2]: 3.12 µM (≈ 10.3 µg/mL)
fungistatic or fungicide mode of action [3]: fungicidal effect
proportion of viable cells (CFU relative to control) ([4]; 5 min): 25%
proportion of viable cells (CFU relative to control) ([4]; 60 min): 5%
reduction in colony-forming units ([4]; half-MIC (0.19 µM), p ≤ 0.001): highly significant decrease
reduction in colony-forming units ([4]; quarter-MIC, p ≤ 0.05): notable reduction
CFU count reduction relative to untreated control ([5]; 0.39 µM): 97%
CFU count reduction relative to untreated control ([5]; 0.78 µM): 99%
CFU count reduction relative to untreated control ([6]; 0.39 µM): 43%
CFU count reduction relative to untreated control ([6]; 0.78 µM): 83%
effect on CFU counts (C. neoformans cells; calcofluor white (2.5 µg/mL) pre-treatment 5 min, then peptide 0.39 µM for 15 min): no reduction in the number of colony-forming units was observed
effect on CFU counts (C. neoformans cells; peptide 0.39 µM (MIC) alone, 20 min, YNB, p ≤ 0.0001): significantly decrease cell viability
